Among the data in patent US20240360114A1 (SIRONAX LTD., priority 2021, published 2024) are EC50 values, retold here.

The test system of one assay is HT-1080 cells. Briefly: HT-1080 cell viability assay (ferroptosis induced by RSL3, Cell Titer-Glo). It is filed as cell-based. Particulars: Homo sapiens, HT-1080, 20 h, ferroptosis inducer RSL3, 20 hours, ferroptosis inhibitory activity, Table 2. The method, boiled down:
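EC50 fitted by sigmoidal dose-response regression on luminescent viability data normalized to untreated cells. Compounds ran as a 10-point, 3-fold series from 1.1 μM alongside RSL3 for 20 hours, after overnight seeding.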
In general, EC50 refers to the concentration giving half of the maximal effect. As to `CC(C)(C)c1ccc(NC2CCC(NC(=O)C3CNC(=O)C3)CC2)cc1` (single isomer, unassigned) [Compound 114A, N-(4-((4-(tert-butyl)phenyl)amino)cyclohexyl)-5-oxopyrrolidine-3-carboxamide], the EC50 fell in the range of 100 to 1000 nM.

The molecule `CC(C)(C)c1ccc(NC2CCCCC2N)cc1` (centres unmarked) [Compound 152, N1-(4-(tert-butyl)phenyl)cyclohexane-1,2-diamine] returned an EC50 of 100 to 1000 nM.

As for `Cc1nc(N2CCC3(CCCOC3)CC2)ccc1NC1CC2(CC(N)C2)C1` (centres unmarked) [Compound 533, N2-(2-methyl-6-(2-oxa-9-azaspiro [5.5]undecan-9-yl)pyridin-3-yl)spiro[3.3]heptane-2,6-diamine], the EC50 fell in the range of 0.1 to 100 nM.

`N[C@H]1CC[C@@H](CNc2ccc3c(c2)CCC3)CC1` [Compound 307, N-(((1s,4s)-4-aminocyclohexyl)methyl)-2,3-dihydro-1H-inden-5-amine]: the EC50 is 0.1 to 100 nM.

As for `NCC1CCC(Nc2ccc(N3CCC(C(F)(F)F)CC3)cc2)CC1` (centres unmarked) [Compound 3, N-(4-(aminomethyl)cyclohexyl)-4-(4-(trifluoromethyl)piperidin-1-yl)aniline], the EC50 lay within 0.1 to 100 nM.

`CC1CC(Nc2ccc(C(C)(C)C)cc2)CCC1N` (centres unmarked) [Compound 250A, N1-(4-(tert-butyl)phenyl)-3-methylcyclohexane-1,4-diamine] showed an EC50 of 0.1 to 100 nM.

`CC(C)C1CCN(c2ncc(NC34CC(N)(C3)C4)cn2)CC1` [Compound 434, N1-(2-(4-isopropylpiperidin-1-yl)pyrimidin-5-yl)bicyclo[1.1.1]pentane-1,3-diamine] had an EC50 of 1000 to 10000 nM.

On to `CC1(C)CCC(c2ccc(NC3CCNCC3)cc2)CC1` [Compound 131, N-(4-(4,4-dimethylcyclohexyl)phenyl)piperidin-4-amine], for which the EC50 lay within 0.1 to 100 nM.

Regarding `COCCCOc1cc(NC2CCC(N)CC2)ccc1C(C)(C)C` (centres unmarked) [Compound 300A, N1-(4-(tert-butyl)-3-(3-methoxypropoxy)phenyl)cyclohexane-1,4-diamine], the EC50 was in the range of 0.1 to 100 nM.

`NC[C@@H]1CCC(Nc2ccc(N3CCC(C(F)(F)F)CC3)cc2)[C@@H](N)C1` (stereo partly drawn) [Compound 503, (2S, 4R)-4-(aminomethyl)-N1-(4-(4-(trifluoromethyl)piperidin-1-yl)phenyl)cyclohexane-1,2-dia mine bis(2,2,2-trifluoroacetate)]: the EC50 is 0.1 to 100 nM.

On to `Cc1nc(N2CC[C@H]3OCCC[C@@H]3C2)ccc1NC1CC2(CC(N)C2)C1` (stereo partly drawn) [Compound 508, N2-(6-((4aR,8aR)-hexahydro-2H-pyrano [3,2-c]pyridin-6 (5H)-yl)-2-methylpyridin-3-yl)spiro[3. 3]heptane-2,6-diamine], for which the EC50 is 0.1 to 100 nM.

With `N[C@H]1CC[C@H](CNc2ccc3c(c2)CCC3)CC1` [Compound 308, N-(((1r,4r)-4-aminocyclohexyl)methyl)-2,3-dihydro-1H-inden-5-amine], the EC50 was in the range of 0.1 to 100 nM.

With `Cc1nc(N2C3CCC2COC3)ccc1NC1CC2(CC(N)C2)C1` (centres unmarked) [Compound 528, N2-(6-(3-oxa-8-azabicyclo[3.2.1]octan-8-yl)-2-methylpyridin-3-yl)spiro[3.3]heptane-2,6-diamine], the EC50 was in the range of 100 to 1000 nM.

For the molecule `CC1(N)CCC(Nc2ccc(C(C)(C)C)cc2)CC1` (single isomer, unassigned) [Compound 231A, N1-(4-(tert-butyl)phenyl)-4-methylcyclohexane-1,4-diamine], the EC50 is 0.1 to 100 nM.

In the case of `CC(C)(C)c1ccc(NC2CCCC(N)C2)cc1` (single isomer, unassigned) [Compound 149A, N1-(4-(tert-butyl)phenyl)cyclohexane-1,3-diamine], the EC50 fell in the range of 100 to 1000 nM.

The molecule `COc1cc(N2C[C@@H](C)O[C@@H](C)C2)ncc1NC1CC2(CC(N)C2)C1` (stereo partly drawn) [Compound 501, N^2-(6-((2R,6S)-2,6-dimethylmorpholino)-4-methoxypyridin-3-yl)spiro[3.3]heptane-2,6-diamine] yielded an EC50 of 1000 to 10000 nM.

Take `CC1(C)CCC(c2ccc(NC3CC(O)C3)cc2)CC1` (single isomer, unassigned) [Compound 228A, 3-((4-(4,4-dimethylcyclohexyl)phenyl)amino)cyclobutan-1-ol]: the EC50 is 0.1 to 100 nM.

`CC1CN(c2ncc3cc(NC4CC5(CC(N)C5)C4)ccc3n2)CC(C)O1` (centres unmarked) [Compound 571, N^2-(2-(2,6-dimethylmorpholino)quinazolin-6-yl)spiro[3.3]heptane-2,6-diamine] had an EC50 of 0.1 to 100 nM.

As for `Cc1cc(N2CCC(C(F)(F)F)CC2)c(C)cc1NC1CCC(N)CC1` (centres unmarked) [Compound 59, N1-(2,5-dimethyl-4-(4-(trifluoromethyl)piperidin-1-yl)phenyl)cyclohexane-1,4-diamine], the EC50 is 0.1 to 100 nM.

For `CC1(C)CCC(c2ccc(NC3CC(NC(=O)[C@H]4CNC(=O)N4)C3)cc2)CC1` (stereo partly drawn) [Compound 129, (R)—N-(3-((4-(4,4-dimethylcyclohexyl)phenyl)amino)cyclobutyl)-2-oxoimidazolidine-4-carboxamide], the EC50 was in the range of 100 to 1000 nM.

As to `CCOC1CCN(c2ccc(NC3CC4(CC(N)C4)C3)c(C)c2)CC1` (centres unmarked) [Compound 471, N2-(4-(4-ethoxypiperidin-1-yl)-2-methylphenyl)spiro[3.3]heptane-2,6-diamine], the EC50 is 0.1 to 100 nM.

Consider `CC(C)C1CCN(c2cnc(NC3CCC(N)CC3)cn2)CC1` (centres unmarked) [Compound 399, N1-(5-(4-isopropylpiperidin-1-yl)pyrazin-2-yl)cyclohexane-1,4-diamine], for which the EC50 lay in the range of 0.1 to 100 nM.

For `CC1CN(c2ccc(NC3CCC(C)(N)CC3)cc2F)CC(C)O1` (centres unmarked) [Compound 458, N1-(4-(2,6-dimethylmorpholino)-3-fluorophenyl)-4-methylcyclohexane-1,4-diamine], the EC50 fell in the range of 100 to 1000 nM.

For `CC(C)(C)c1ccc(NC(CCO)CCO)cc1` [Compound 234, 3-((4-(tert-butyl)phenyl)amino) pentane-1,5-diol], the EC50 fell in the range of 1000 to 10000 nM.

`Cc1nc(N2CCOCC2)ccc1NC1C2CC3CC1CC(CN)(C3)C2` (centres unmarked) [Compound 538A, N-((2r,5s)-5-(aminomethyl)adamantan-2-yl)-2-methyl-6-morpholinopyridin-3-amine] had an EC50 of 0.1 to 100 nM.

Take `CCC(C)(C)c1ccc(NC2CC(CN)C2)cc1` (centres unmarked) [Compound 333, N-(3-(aminomethyl)cyclobutyl)-4-(tert-pentyl)aniline]: the EC50 lay within 0.1 to 100 nM.

With `NC1CCC(Nc2ccc(CC(F)(F)F)cc2)CC1` (centres unmarked) [Compound 223, N1-(4-(2,2,2-trifluoroethyl)phenyl)cyclohexane-1,4-diamine], the EC50 lay in the range of 1000 to 10000 nM.

In turn, `CC1CN(c2ccc(NC[C@H]3CC[C@H](N)CC3)cc2F)CC(C)O1` (some centres unmarked) [Compound 430, N-(((1r,4r)-4-aminocyclohexyl)methyl)-4-(2,6-dimethylmorpholino)-3-fluoroaniline] had an EC50 of 0.1 to 100 nM.

Consider `CC1CC(c2ccc(NC3CCC(N)CC3)cc2)CC(C)O1` (centres unmarked) [Compound 138, N1-(4-(2,6-dimethyltetrahydro-2H-pyran-4-yl)phenyl)cyclohexane-1,4-diamine], for which the EC50 is 100 to 1000 nM.

The assay is the same for the next values; noted with them: Homo sapiens, HT-1080, 20 h, ferroptosis inducer RSL3, 20 hours, ferroptosis inhibitory activity, Table 3.
Regarding `Cc1cc(NC2CC3(CC(N)C3)C2)ccc1N1CC(C)N(C(=O)C(F)(F)F)C(C)C1` (centres unmarked) [Compound 647, 1-(4-(4-((6-aminospiro[3.3]heptan-2-yl)amino)-2-methylphenyl)-2,6-dimethylpiperazin-1-yl)-2,2,2-trifluoroethan-1-one], the EC50 was 0.1 to 100 nM.

For the molecule `Cc1nc(N2CC(C)OC(C(F)(F)F)C2)ccc1NC1CC2(CC(N)C2)C1` (centres unmarked) [Compound 588], the EC50 lay in the range of 0.1 to 100 nM.

`Cc1nc(N2C[C@@H](C)O[C@@H](C)C2)ccc1NC1CCCC(N)CCC1` (stereo partly drawn) [Compound 631, N1-(6-((2R,6S)-2,6-dimethylmorpholino)-2-methylpyridin-3-yl)cyclooctane-1,5-diamine] registered a concentration giving a half-maximal response (EC50) of 0.1 to 100 nM.

Molecule `COCCNc1ccc2cc(NC3CC4(CC(N)C4)C3)ccc2c1` (centres unmarked) [Compound 650, N2-(6-aminospiro [3.3]heptan-2-yl)-N6-(2-methoxyethyl) naphthalene-2,6-diamine] gave an EC50 of 0.1 to 100 nM.

Regarding `[2H]C1(Nc2ccc(N3C[C@@H](C)O[C@@H](C)C3)nc2C)CC2(CC(N)C2)C1` (some centres unmarked) [Compound 645], the EC50 was in the range of 0.1 to 100 nM.

The molecule `Cc1nc(N2CCN(CC(F)(F)F)C(C)C2)ccc1NC1CC2(CC(NC(N)=O)C2)C1` (centres unmarked) [Compound 603] displayed an EC50 of 0.1 to 100 nM.

In turn, `CC(=O)N1CCN(CCNc2ccc(N3CC(C)OC(C)C3)nc2C)CC1` (centres unmarked) [Compound 607, 1-(4-(2-((6-(2,6-dimethylmorpholino)-2-methylpyridin-3-yl)amino)ethyl)piperazin-1-yl)ethan-1-one] yielded an EC50 of 100 to 1000 nM.

For `Cc1nc(N2CC[Si](C)(C)CC2)ccc1NC1CC(N)C1` (centres unmarked) [Compound 608, N1-(6-(4,4-dimethyl-1,4-azasilinan-1-yl)-2-methylpyridin-3-yl)cyclobutane-1,3-diamine], the EC50 fell in the range of 0.1 to 100 nM.

The molecule `NC(=O)C1CC2(CC(Nc3ccc4cc(N5CCC(C(F)(F)F)CC5)ccc4c3)C2)C1` (centres unmarked) [Compound 584, 6-((6-(4-(trifluoromethyl)piperidin-1-yl)naphthalen-2-yl)amino)spiro[3.3]heptane-2-carboxamide] registered an EC50 of 0.1 to 100 nM.

The assay is the same for the next values; noted with them: Homo sapiens, ferroptosis inducer RSL3, 20 hours, ferroptosis inhibitory activity, Table 2.
`CC(C)(C)c1ccc(NCCC2CCC(N)CC2)cc1` (centres unmarked) [Compound 336A, N-(2-(4-aminocyclohexyl)ethyl)-4-(tert-butyl)aniline] registered an EC50 of 0.1 to 100 nM.

For the molecule `CC(C)(C)c1ccc(NC2CCN(C(N)=O)CC2)cc1` [Compound 178, 4-((4-(tert-butyl)phenyl)amino)piperidine-1-carboxamide], the EC50 lay in the range of 1000 to 10000 nM.

The same assay, now with this note: ferroptosis inducer RSL3, 20 hours, ferroptosis inhibitory activity, Table 2.
As to `Cc1nc(N2CC(C)OC(C)C2)c(F)cc1NC1C2CC3CC1CC(CN)(C3)C2` (single isomer, unassigned) [Compound 539B, N-((2r,5s)-5-(aminomethyl)adamantan-2-yl)-6-(2,6-dimethylmorpholino)-5-fluoro-2-methylpyridin-3-amine], the EC50 fell in the range of 100 to 1000 nM.
